The values below come from ChEMBL document CHEMBL1944509, “Methyl-monofluorination of ibuprofen selectively increases its inhibitory activity toward cyclooxygenase-1 leading to enhanced analgesic activity and reduced gastric damage in vivo” (Bioorg Med Chem Lett, 2011).

The target in assay [1] is T1, Prostaglandin G/H synthase 1 (Ovis aries) (UniProt P05979).
T1 sequence (whole entry): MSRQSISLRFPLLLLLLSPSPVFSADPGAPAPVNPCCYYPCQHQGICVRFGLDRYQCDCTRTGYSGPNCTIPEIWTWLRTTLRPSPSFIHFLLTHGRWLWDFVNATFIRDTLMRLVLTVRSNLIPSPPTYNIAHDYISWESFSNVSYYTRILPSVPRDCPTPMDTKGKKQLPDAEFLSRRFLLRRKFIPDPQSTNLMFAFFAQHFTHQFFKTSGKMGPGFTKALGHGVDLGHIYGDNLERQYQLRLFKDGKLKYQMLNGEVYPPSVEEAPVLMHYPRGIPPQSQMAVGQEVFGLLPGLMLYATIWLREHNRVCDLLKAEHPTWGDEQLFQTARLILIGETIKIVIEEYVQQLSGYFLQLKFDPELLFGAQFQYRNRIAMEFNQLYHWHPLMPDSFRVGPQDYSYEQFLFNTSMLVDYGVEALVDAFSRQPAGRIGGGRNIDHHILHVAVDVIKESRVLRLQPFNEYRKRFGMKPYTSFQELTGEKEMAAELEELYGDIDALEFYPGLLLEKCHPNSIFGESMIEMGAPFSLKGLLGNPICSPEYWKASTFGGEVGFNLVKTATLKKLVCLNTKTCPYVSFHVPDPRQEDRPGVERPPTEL
Kind of assay: Inhibition of ovine COX1 up to 1 mM by EIA.

In assay [2] the target is T2, Prostaglandin G/H synthase 2 (Homo sapiens) (UniProt P35354).
T2 sequence (whole entry): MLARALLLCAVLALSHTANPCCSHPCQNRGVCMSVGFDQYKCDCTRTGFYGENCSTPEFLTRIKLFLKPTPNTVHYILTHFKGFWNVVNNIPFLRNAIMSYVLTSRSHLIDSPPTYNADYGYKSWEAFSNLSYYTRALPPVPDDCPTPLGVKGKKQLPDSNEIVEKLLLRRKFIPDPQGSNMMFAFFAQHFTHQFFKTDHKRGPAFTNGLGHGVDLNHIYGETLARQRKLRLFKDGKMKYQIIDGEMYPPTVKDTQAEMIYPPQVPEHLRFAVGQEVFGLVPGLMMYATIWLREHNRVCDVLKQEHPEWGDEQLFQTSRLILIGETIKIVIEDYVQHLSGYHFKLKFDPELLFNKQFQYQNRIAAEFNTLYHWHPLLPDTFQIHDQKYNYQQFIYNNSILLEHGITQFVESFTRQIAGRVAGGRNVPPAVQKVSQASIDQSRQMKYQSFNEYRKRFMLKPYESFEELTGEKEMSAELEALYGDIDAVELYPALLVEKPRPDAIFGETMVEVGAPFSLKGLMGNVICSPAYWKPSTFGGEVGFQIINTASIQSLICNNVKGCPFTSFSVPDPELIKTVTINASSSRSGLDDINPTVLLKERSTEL
Kind of assay: Inhibition of human recombinant COX2 up to 1 mM by EIA.

Calls of active or inactive are those of the source. The calls are words filed in the database; no cut-off is given here.

Regarding `CC(C)Cc1ccc([C@@H](CF)C(=O)O)cc1`, the inhibition result in assay [1] and in assay [2] was “inactive” throughout.
